PubChem BioAssay (NCI)
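Cultured in 96-well plates, cells were exposed to test compound for 48 hours across five concentrations. TGI: concentration producing complete growth inhibition.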

How the values were obtained:
Experiment in all cases: NCI tumour cell line growth inhibition, 48 h
NCI-H226 lung = tested on: NCI-H226 lung
TK-10 renal = tested on: TK-10 renal
EKVX NSCLC = tested on: EKVX NSCLC
OVCAR-4 ovarian = tested on: OVCAR-4 ovarian
OVCAR-3 ovarian = tested on: OVCAR-3 ovarian
SF-295 CNS = tested on: SF-295 CNS
OVCAR-8 ovarian = tested on: OVCAR-8 ovarian
DU-145 prostate = tested on: DU-145 prostate
UACC-257 melanoma = tested on: UACC-257 melanoma
NCI-H460 lung = tested on: NCI-H460 lung
MDA-MB-435 = tested on: MDA-MB-435
SK-MEL-5 melanoma = tested on: SK-MEL-5 melanoma
SK-MEL-28 melanoma = tested on: SK-MEL-28 melanoma
T-47D breast = tested on: T-47D breast
SW-620 colon = tested on: SW-620 colon
SN12C renal = tested on: SN12C renal
SNB-19 CNS = tested on: SNB-19 CNS
IGROV1 ovarian = tested on: IGROV1 ovarian

Row | Compound | TGI (NCI-H226 lung) [µM] | TGI (TK-10 renal) [µM] | TGI (EKVX NSCLC) [µM] | TGI (OVCAR-4 ovarian) [µM] | TGI (OVCAR-3 ovarian) [µM] | TGI (SF-295 CNS) [µM] | TGI (OVCAR-8 ovarian) [µM] | TGI (DU-145 prostate) [µM] | TGI (UACC-257 melanoma) [µM] | TGI (NCI-H460 lung) [µM] | TGI (MDA-MB-435) [µM] | TGI (SK-MEL-5 melanoma) [µM] | TGI (SK-MEL-28 melanoma) [µM] | TGI (T-47D breast) [µM] | TGI (SW-620 colon) [µM] | TGI (SN12C renal) [µM] | TGI (SNB-19 CNS) [µM] | TGI (IGROV1 ovarian) [µM]
1 | COC(=O)c1ccc(C)cc1C1CN=NC12Cc1cc(C)ccc1C2=O (stereo unspecified) | 88 | 71.7 | > 95.5 | 98.7 | > 80.1 | > 77.2 | > 100 | 97.6 | > 94.2 | > 65.4 | 6.12 | 21.6 | > 100 | > 100 | > 100 | > 87.1 | > 100 | > 100
2 | Cc1c2ccccc2c(C2C3C(=O)N(c4cccc5ccccc45)C(=O)C3ON2Cc2ccc(CC(N)=O)cc2)c2ccccc12 (stereo unspecified) | 46.5 | > 50 | 48.9 | > 50 | > 50 | > 50 | > 50 | > 50 | 37 | 48.6 | > 50 | > 50 | > 50 | > 50 | > 50 | > 50 | > 50 | > 50
3 | CC[C@@H]1CC[C@@H]2[C@H](CC[C@]3(C)[C@@H](OC(C)=O)CC[C@@H]23)[C@H]1C(=O)OC | 38 | > 100 | 58.6 | 52.8 | 34.4 | 46.6 | 76.9 | 86.1 | 54.3 | 51.6 | 41.9 | 27.7 | > 100 | 66.8 | 48.8 | 69.9 | 72.4 | 89.8
4 | COc1cc2cc3c4cc(OC)c(OC)cc4cc[n+]3c(C)c2cc1OC | > 100 | > 100 | > 100 | > 100 | > 100 | > 100 | > 100 | > 100 | > 100 | > 100 | > 100 | > 100 | > 100 | > 100 | > 100 | > 100 | > 100 | > 100
5 | O=C1CCCCC1C(O)(C(F)(F)F)C(F)(F)Cl (stereo unspecified) | > 10 | > 10 | > 10 | > 10 | > 10 | > 10 | > 10 | > 10 | > 10 | > 10 | > 10 | > 10 | > 10 | > 10 | > 10 | > 10 | > 10 | > 10
6 | CCCNCC(O)CNc1ccc(NCC(O)CNCCC)c2c1C(=O)c1ccccc1C2=O (stereo unspecified) | 6.24 | 22.2 | 20.1 | 10.6 | 13.7 | – | 8.51 | 20.2 | 17.6 | 8.48 | 10.5 | 9.76 | 9.69 | 14.6 | 7.21 | 7.67 | 6.35 | 7.87
7 | COc1ccc(NS(=O)c2c(C)cc(C)cc2C)cc1 (stereo unspecified) | > 100 | > 100 | > 100 | > 100 | > 100 | > 100 | > 100 | > 100 | > 100 | > 100 | > 100 | 92.1 | > 100 | > 100 | > 100 | > 100 | > 100 | > 100
8 | O=C(O)c1cccc(OCCOc2cccc(C(=O)O)c2[N+](=O)[O-])c1[N+](=O)[O-] | > 100 | > 100 | > 100 | > 100 | > 100 | > 100 | > 100 | > 100 | > 100 | > 100 | > 100 | > 100 | > 100 | > 100 | > 100 | > 100 | > 100 | > 100
9 | O=C(CCc1ccc(O)c(O)c1)NCCc1cc(O)c(O)c(O)c1 | > 100 | > 100 | 53 | 34.5 | 34.5 | 33.3 | 36.2 | > 100 | > 100 | 40.8 | 31.8 | 66.2 | > 100 | > 100 | 35.5 | 31.9 | > 100 | > 100
10 | NC(Cc1ccccc1)c1nn[nH]n1 (stereo unspecified) | > 100 | > 100 | > 100 | > 100 | > 100 | > 100 | > 100 | > 100 | > 100 | > 100 | > 100 | > 100 | > 100 | > 100 | > 100 | > 100 | > 100 | > 100
11 | C=C(CCC/C(C)=C/C=C/[C@H](C)CCCc1ccoc1)C[C@@H]1OC(=O)[C@H](C)[C@@H]1O | 16.6 | 22.2 | 21 | 13.1 | 17.6 | 22.9 | 27.5 | 19 | 16.4 | 45 | 18.5 | 17 | 15.6 | 17.6 | 26.7 | 17.7 | 17.1 | 24.6
12 | C=CC(OC(=O)C(C)C)c1ccc(OC(=O)C(C)C)cc1 (stereo unspecified) | 39 | – | 39.3 | 33.8 | 31.1 | 29.1 | 31.4 | > 100 | 27.9 | 30.9 | 26.4 | 30.6 | 23.8 | 69.8 | 20.7 | 30 | 28.2 | 32.7
13 | CCOC(=O)C1=CNC(C(=O)OCC)C1c1cccn1-c1ccccc1 (stereo unspecified) | 54.2 | > 100 | > 100 | > 100 | > 100 | 74.5 | > 100 | > 100 | > 100 | > 100 | 57.6 | 31.5 | 76.3 | > 100 | > 100 | > 100 | – | > 100
